What was measured:
[1] = system: Balb/3T3 cells; experiment: PDGF-induced proliferation of Balb/3T3 cells; type: cell-based, murine
Experimental: Balb/3T3 cells respond vigorously to PDGF stimulation, and are useful in vitro models for further study of PDGF-induced proliferation. Disregulated PDGF-proliferative response has been linked to a variety of diseases, including, e.g., restenosis, atherosclerosis, fibrosis, and tumor cell angiogenesis. Cells were plated in low serum-containing medium for 24 hours prior to stimulation with various concentrations of inventive compound no. 45. PDGF-BB was added at constant 10 µM concentrations. Tritiated thymidine was added and cells harvested for scintillation counting 24 hours later. Figure 15 illustrates a dose response curve from this assay, including an IC50 value of approximately 0.08 µM, exemplifying inhibitory activity of the tested compound.
In another investigation similar to the Balb/3T3 proliferation assay of Example 32, IC50 and ID50 values for inventive compounds nos. 70, 45, 59 and 58 were determined. LD50 values were determined using a cytotoxicity assay, as in Example 32. In these assays, Balb/3T3 cells, stimulated with PDGF and treated with one of the above inventive compounds in a manner identical to the tritiated thymidine procedure above, were incubated instead with a viable dye BCECF, a fluorescent dye. Fluorescence was measured using a fluorescent plate reader. […] Figure 17 illustrates assay results by comparing […] value against LD50 values for the inventive compounds tested. Most compounds tested were non-cytotoxic yet were significant inhibitors of proliferation.
Inventive compounds nos. 77,7 and 78 were added at various concentrations one hour prior to PDGF stimulation. PDGF-BB was added at a constant 10 µM concentrations along with tritiated thymidine. The cells were allowed to incubate for one day, following addition of PDGF and tritiated thymidine. 24 Hours later, the cells were harvested and counted by liquid scintillation counting. Results for compounds nos.77, 7 and 78 are shown in figures 26A, 26B and 26C, respectively. Background counts were approximately 1% of control levels.
Results obtained for compound no. 50 in the PDGF-induced proliferation of Balb/3T3 cells (Example 32), reported in figure 28, illustrate the inhibitive properties of this compound on proliferation induced by PDGF, representing significant inhibition at concentrations as low as 2 µM. […] 50, are capable of reducing tumor cell growth by blocking oncogene-induced events.
Figure 66 reports that inventive compound no. 45 inhibited PDGF-induced murine BALB/3T3 proliferation. Procedurally, cells were rested overnight in 0.2% serum and stimulated with 25 ng/ml PDGF. Compound no. 45 was added 1 hour prior to stimulation. Cells were pulsed with ^3H-TdR 24 hours later and harvested for scintillation counting 4 hours later.
Figures 66A and 66B are a dose response and cytoxicity curves, respectively, for inhibition of proliferation in Balb/3T3 cells by inventive compound no. 58. In the assay protocol, cells were starved overnight in 0.5% serum containing medium, followed by stimulation with 20 ng/ml PDGF for 24 hours. The cells were labeled with ^3H-TdR for 4 hours and harvested and counted by scintillation. Figure 66B illustrates that inventive compound no.
Figure 68 illustrates an effect of the delayed addition of inventive compound no. 58 to Balb/3T3 proliferation in response to PDGF-BB. Cells were stimulated with PDGF (20 ng/ml) and inventive compound no. 58 added either simultaneous with PDGF (0) or at various times after addition of PDGF, up to 6 hours later. At 24 hours, the cells were pulsed with ^3H-TdR and counted by scintillation four hours later. […] 58 was added as late as 20 hours after PDGF.
Figure 69 illustrates that inventive compound no. […] In the assay protocol, cells were serum starved for 24 hours before adding either 20 ng/ml PDGF or 10% serum. The cells were pulsed with ^3HTdR 24 hours later. Inventive compound no.

[2] = system: murine cytotoxic T-cell line, CT6; experiment: Cytokine-induced proliferation of the cytotoxic T-cell line CT6 / CT-6.1; type: cell-based; conditions: for inhibition of direct IL-2-induced proliferation: added one hour prior to IL-2, thymidine at 48 hours; for IC50: Mus musculus, T-cell, CT-6.1 cells
Experimental: Another assay in this example was used to determine inhibitive activity of the inventive compounds on direct IL-2-induced proliferation in a murine cytotoxic T-cell line, CT6. The CT6 cell line is an IL-2-dependent cell line. IL-2 was removed from the medium for 24 hours prior to stimulation. […] 49, 50, 45, 43 or 41 were added at various concentrations. The cells were stimulated with IL-2 and amount of tritiated thymidine dye incorporated was measured 48 hours later.
In another related assay, inhibitory effects on CT6 cell proliferation is examined. CT6 cells are a murine IL-2 dependent, cytotoxic T cell line that proliferate in response to murine IL-2 (15 U/ml).
CT-6.1 cells were starved overnight and stimulated with IL-2 (20 ng/ml). Twenty hours later, cells were labeled for 4 hours with ^3H-TdR and counted by liquid scintillation.
CT6.1 cells were cultured with IL-2 with or without the addition of inventive compound no. 45 (2 µM) and viable cells counted for up to 8 days. On day 4, two cultures previously incubated with compound no. 45, were washed and recultured with fresh IL-2 with or without compound no. 45 (2 µM).
Procedurally, CT-6.1 cells were starved overnight and stimulated with either IL-2 (20 ng/ml), IL-4 (50 ng/ml) or IL-7 (25 ng/ml). ^3H-TdR was added at 20 hours, cells were harvested 4 hours later, and the incorporation of ^3H-TdR was determined.

[3] = system: THP-1 cell adhesion to IL-1-activated HUVEC; experiment: THP-1 cell adhesion to activated HUVEC; type: cell-based, human
Experimental: This example illustrates inhibitive activity of compounds nos. 50 and 57 on THP-1 cell adhesion to IL-1-activated HUVEC. In an investigative assay, HUVEC were stimulated with IL-1 (10 ng/ml), both in the absence and presence of varying concentrations of drugs for 8 hours in a 96-well microtiter plate. In the wellplate, human monocytic leukemia cell line THP-1 cells were added at 50,000 cells per well. The THP-1 cells were pre-incubated with BCECF, a fluorescence dye that can be used to measure cell number using a fluorescence plate reader. After 10 minutes at 37 °C, the microtiter plate was inverted and spun at 900 rpm. The remaining adhering THP-1 cells were then analyzed.
Inventive compound no. […] HUVEC were stimulated with 20 ng/ml IL-1β or 15 ng/ml TNFα for 6 hours. Fluorescence labeled (BCECF-AM) THP-1 cells were allowed to adhere to the HUVEC for 20 minutes, washed once and the amount of fluorescence remaining analyzed on a fluorescence plate reader. The results, reported in figures 62A and 62B (TNFα or IL-1β, respectively), show inhibition of THP-1 adhesion to HUVEC.
Figures 72A and 72B illustrate that inventive compound no. 58 inhibited THP-1 cell adhesion to either TNF or IL-1-stimulated HUVEC, respectively. Procedurally, HUVEC were stimulated with TNF or IL-1 for 8 hours and THP-1 cells added for 20 minutes. The HUVEC were then washed and analyzed for adherence. Inventive compound no. 58 inhibited adhesion of THP-1 cells to HUVEC with an IC50 of approximately 1 µM for both TNF and IL-1.

SMILES	minimal effective concentration ([1]; Mus musculus, BALB/3T3, fig. 28, read-out: concentrations giving significant inhibition)	inhibition of direct IL-2-induced proliferation [2]	inhibition of THP-1 adhesion ([3]; IL-1 (10 ng/ml), 8 hours)	PDGF-induced versus serum-induced proliferation ([1]; 20 ng/ml PDGF or 10% serum)	effect on serum-induced proliferation ([1]; 10% serum)	IC50 ([1]; Mus musculus, BALB/3T3, 20 ng/ml PDGF, 24 hours)	inhibition with delayed addition ([1]; added as late as 20 hours after PDGF)	IC50 ([3]; Homo sapiens, TNF-stimulated HUVEC, 8 hours)	IC50 ([1]; Mus musculus, BALB/3T3, PDGF-BB, low serum 24 hours)	proliferation measured by cell number ([2]; CT6.1 cells, IL-2, 2 µM, up to 8 days)	reversibility of the effect ([2]; CT6.1 cells, washed on day 4)	IC50 ([2]; IL-2 (20 ng/ml), fig. 46)	IC50 ([2]; IL-2 (20 ng/ml), fig. 48)	IC50 ([2]; IL-4 (50 ng/ml))	IC50 ([2]; IL-7 (25 ng/ml))	inhibition of THP-1 adhesion ([3]; 20 ng/ml IL-1β or 15 ng/ml TNFα, 6 hours)
CCCCCCCCCCCCNCC(O)CCCCCCCCCn1c(=O)c2c(ncn2C)n(C)c1=O (centres unmarked) [compound no. 50, 1-(11-Dodecylamino-10-hydroxyundecyl)-3,7-dmethylxanthine]	≥ 2 µM	inhibited direct IL-2-induced CT6 proliferation	significantly inhibited THP-1 adhesion, even at low concentratations													
COc1cc(CNCC(O)CCCCCCCCCn2c(=O)c3c(ncn3C)n(C)c2=O)cc(OC)c1OC (centres unmarked) [compound no. 58, 1-[11-(3,4,5-Trimethoxybenzylamino)-10-hydroxyundecyl]-3,7-dimethylxanthine]				inhibited PDGF- induced proliferation in Balb/3T3 cells to a greater extent than serum-induced proliferation	did not have a significant effect on serum-induced Balb/3T3 proliferation	200 to 500 nM	nearly complete inhibition in proliferation	~1000 nM								
CCCCCCCCNCC(O)CCCCCCCCCn1c(=O)c2c(ncn2C)n(C)c1=O (centres unmarked) [compound no. 45]		inhibited direct IL-2-induced CT6 proliferation							~80 nM	inhibits proliferation as measured by cell number	reversible even after 4 days in culture	~800 nM	< 1000 nM	< 1000 nM	< 1000 nM	inhibited adhesion of monocytic leukemia cells (THP-1) to IL-1β or TNFα-activated HUVEC

— patent EP0719267B1, “SECOND MESSENGER CELL SIGNALING INHIBITORS” (CELL THERAPEUTICS, INC., priority 1993, dated 1994)
